Source: PubChem BioAssay (NCI)
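Five compound concentrations were applied to cells in 96-well plates for 48 hours; endpoints were derived by simple linear interpolation of the resulting dose-response curve. TGI: concentration producing complete growth inhibition.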

Key:
Assay in all cases: NCI anticancer screen, dose series, 48 h
[1] = test system: HL-60(TB) leukemia
[2] = test system: BT-549 breast
[3] = test system: CCRF-CEM leukemia
[4] = test system: MDA-MB-231 breast
[5] = test system: ACHN renal
[6] = test system: MDA-N
[7] = test system: OVCAR-5 ovarian
[8] = test system: SF-539 CNS
[9] = test system: UACC-62 melanoma
[10] = test system: SNB-75 CNS
[11] = test system: MDA-MB-435
[12] = test system: MOLT-4 leukemia
[13] = test system: T-47D breast
[14] = test system: UO-31 renal
[15] = test system: OVCAR-3 ovarian
[16] = test system: NCI-H460 lung
[17] = test system: HOP-92 NSCLC
[18] = test system: M14 melanoma
[19] = test system: MALME-3M melanoma
[20] = test system: HOP-62 NSCLC
[21] = test system: SNB-19 CNS
[22] = test system: EKVX NSCLC
[23] = test system: RPMI-8226 leukemia
[24] = test system: SK-OV-3 ovarian
[25] = test system: HCC-2998 colon
[26] = test system: HCT-15 colon
[27] = test system: HT29 colon
[28] = test system: PC-3 prostate
[29] = test system: SK-MEL-28 melanoma
[30] = test system: UACC-257 melanoma
[31] = test system: K-562 leukemia
[32] = test system: SW-620 colon
[33] = test system: KM12 colon
[34] = test system: LOX IMVI melanoma
[35] = test system: SF-295 CNS
[36] = test system: A549 NSCLC
[37] = test system: NCI/ADR-RES ovarian
[38] = test system: HCT-116 colon
[39] = test system: 786-0 renal
[40] = test system: SK-MEL-5 melanoma
[41] = test system: DU-145 prostate
[42] = test system: U251 CNS
[43] = test system: OVCAR-8 ovarian
[44] = test system: RXF 393 renal
[45] = test system: NCI-H522 lung
[46] = test system: HS 578T breast
[47] = test system: SF-268 CNS
[48] = test system: SN12C renal
[49] = test system: SK-MEL-2 melanoma
[50] = test system: IGROV1 ovarian
[51] = test system: MCF7 breast
[52] = test system: TK-10 renal
[53] = test system: CAKI-1 renal
[54] = test system: A498 renal
[55] = test system: NCI-H23 lung
[56] = test system: OVCAR-4 ovarian
[57] = test system: NCI-H226 lung
[58] = test system: COLO 205 colon

Measured: TGI

O=C(O)/C(=C/c1ccccc1)c1ccccc1
not listed: [57] | [58]
> 100 µM: all other assays above

CC(CN(C)C)C(C#N)(c1ccccc1)c1ccccc1 (centres undefined)
> 100 µM: all assays above
